Target: Protein arginine N-methyltransferase 5 (Homo sapiens, UniProt O14744)
Assay: TR-FRET Assay: Protein arginine methyltransferase 5 (PRMT5) is a type II arginine methyltransferase that catalyze mono- and symmetric […] on arginine residues of histone or non-histone proteins in presence of S-adenosylmethionine (AdoMet or SAM) a cofactor responsible for donating the methyl group. PRMT5 is reported to be overexpressed in several human cancers. To identify compounds that inhibit the PRMT5 and decrease its activity, a TR-FRET based assay has been established. Time-resolved fluorescence resonance energy transfer (TR-FRET) HTS assays are homogeneous proximity assays where the interaction of two dye-labeled binding partners is detected by the energy transfer between a donor and an acceptor dye, and the subsequent light emission by the acceptor dye. PRMT5 catalyzes Histone H4 peptide [1-16] which is biotin tagged to the Lysine amino acid at carboxyl end, in presence of S-adenosyl-1-methionine (SAM) to methylate the peptide. The antibody specific to mono methylated H4 peptide (H4R3) with Ig conjugate binds to the methylated peptide, indirectly binding to the Europium lanthanide. SureLight Allophycocyanin-Streptavidin binds to the biotin tag of the peptide, therefore accepting the energy transferred from the Europium lanthanide. This energy transfer between Europium to SureLight Allophycocyanin is a direct measure of the activity/inhibition of the PRMT5 enzyme. […]

Chain of Protein arginine N-methyltransferase 5 (O14744 whole entry): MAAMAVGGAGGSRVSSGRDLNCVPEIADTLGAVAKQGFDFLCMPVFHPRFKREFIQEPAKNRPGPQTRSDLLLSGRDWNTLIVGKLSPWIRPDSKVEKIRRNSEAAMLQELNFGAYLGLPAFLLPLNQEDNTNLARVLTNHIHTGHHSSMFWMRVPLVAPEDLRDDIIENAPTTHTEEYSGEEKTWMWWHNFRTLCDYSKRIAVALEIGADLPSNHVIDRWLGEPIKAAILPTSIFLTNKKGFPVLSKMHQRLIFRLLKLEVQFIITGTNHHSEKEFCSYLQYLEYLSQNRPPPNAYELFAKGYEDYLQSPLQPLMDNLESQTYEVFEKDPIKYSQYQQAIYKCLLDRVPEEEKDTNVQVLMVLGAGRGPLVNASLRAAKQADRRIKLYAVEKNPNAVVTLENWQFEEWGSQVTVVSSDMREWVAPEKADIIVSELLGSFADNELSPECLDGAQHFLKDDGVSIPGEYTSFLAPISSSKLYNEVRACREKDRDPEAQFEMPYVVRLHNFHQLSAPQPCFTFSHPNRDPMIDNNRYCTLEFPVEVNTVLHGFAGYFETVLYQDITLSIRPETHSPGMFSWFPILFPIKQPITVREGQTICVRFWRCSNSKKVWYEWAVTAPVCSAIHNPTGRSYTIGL

- IC50: 0.053 µM
Compound: O=C1N(Cc2cnc(-c3cccnc3)cn2)CCN1C[C@H](O)CN1CCc2ccccc2C1
